The numbers were not newly measured in patent publication EP3373945B1, “AN ORAL DRUG FORMULATION COMPRISING SILYBIN” (ISTITUTO BIOCHIMICO ITALIANO GIOVANNI LORENZINI S.p.A., priority 2015, dated 2017), which cites them from elsewhere.

Converted amounts (≈) assume the structure as drawn.

For the compound `COc1cc(C2Oc3cc([C@H]4Oc5cc(O)cc(O)c5C(=O)[C@@H]4O)ccc3OC2CO)ccc1O` (stereo partly shown) [silybin], the water solubility is 430 µg/mL (≈ 891 µM).
